Read-outs that look alike come from different tables or passages of the source.
Legend:
[1] = Acute toxicity (oral LD50); set-up: species or system male Swiss mice; details: in vivo, mouse, deaths in ten days, Litchfield and Wilcoxon, limits in parentheses, max dose generally 500 mg/Kg, read-out: DL/50 (mouse os)
Experimental: LD50 was calculated according to Litchfield and Wilcoxon method (J. Pharm. Expt. Ther. 96, 99; 1949). The maximum dose administered was generally 500 mg/Kg.

bronchospasm = assay: Antibronchospastic activity (aerosol ovalbumin, sensitized guinea pigs, oral); type: in vivo, guinea pig; details: for Oral antibronchospastic activity (aerosol ovalbumin guinea-pig) A.U.C. 0 → 3h Index: ratio between equieffective doses of theophylline and tested compound, AUC of % inhibition 0-3 h
Experimental: Fasted (16 h) male and female guinea pigs were sensitized by ovalbumin (25 mg/Kg. s.c. and 25 mg/Kg. i.p.) (Herxheimer and Stresemann--Arch. It. Pharmacodyn. Ther. 125.126; 1960). After two weeks, animals were challenged, by an aerosol of 0.5% ovalbumin recording the latency time (T1) of the first bronchospasm. A week later, the test was repeated in the same animals 1-3 hours after drug administration (T2). % of inhibition was determined as [formula] where T1 was control latency time, T2 was latency time after drug administration. […] The area under curve (AUC) expressing the % inhibition plotted toward time (0-3 h) after drug dosing, was calculated.

[2] = test system: heart rate and blood pressure; details: in vivo, po
Experimental: Fasted (16 h) normotensive male Wistar rats weighing 300-380 g. were used. The animals were prewarmed by means of infrared lamp for 15 min. before recording blood pressure and heart rate with the tale-cuff method (Maffii G. e Coll.--Arch. It. Sci. Farm. 12, 3; 1962). Recording were performed before and 30'-90'--3 h after oral drug administration. […] The % increase in heart rate was plotted against the log dose. […] In table 2 the average value of the indexes was reported.

[3] = Effects on CNS: cardiazole (CZ) induced convulsions; details: mouse, in vivo, po
Experimental: (§1) Fasted (20 h) male Swiss mice (20 g b.w.) received orally the compounds 1 h before cardiazole (CZ) or chlordiazepoxide (CDO) administration.
CZ was injected i.p. in a fully convulsive dose which produced death in about 10% of animals (60-100 mg/Kg.). Appropriate dose was determined before each experimental session.
(§2) In the untreated animals, CDO 100 mg/Kg i.p. induced sleep lasting 20-30 min. Sleeping time was defined as the time elapsing from the loss to the recovery of the righting reflex. Pretreated animals were observed up to a maximum of 6 h.

[4] = Effects on CNS: sleeping time following chlordiazepoxide (CDO) treatment; details: mouse, in vivo, po
Experimental: as §1, §2

SMILES | LD50 at 240 h [1] [µmol/kg] | Oral antibronchospastic activity (aerosol ovalbumin guinea-pig) A.U.C. 0 → 3h Index (bronchospasm) | Tachycardic effects (rat os) Index [2] | further results
CCCn1c(=O)c2c(nnn2CCN2CCCCC2)n(-c2ccccc2)c1=O [MX82103] | 910 | 1,7 | 0 | 
CCC(C)Cn1c(=O)[nH]c(=O)c2c1nnn2CCN(CC)CC (centres unmarked) [MX82108] | > 1550 | 1,3 | 0 | 
CCCn1c(=O)c2nn(CCN3CCCCC3)nc2n(-c2ccccc2)c1=O [MX82104] | 1310 | 2,1 | 0 | 
CCCn1c(=O)c2c(nnn2CCN2CCOCC2)n(-c2ccccc2)c1=O [MX82105, 1-n-propyl-3-phenyl-7-(2-morpholinoethyl)-8-azaxanthine] | > 1300 | 2,4 | 0 | 
Cn1c(=O)c2[nH]cnc2n(C)c1=O [THEOPHYLLINE, 1.3-dimethylxanthine, reference compound] |  |  |  | ED50 [3]: 150 µmol/kg; ED50 (bronchospasm; Cavia porcellus, po, guinea pig, 0.5% ovalbumin aerosol, read-out: ED50, inhibition of bronchoconstriction): 250 µmol/kg; ED50 [4]: 75 µmol/kg; blood pressure effect ([2]; rat): slight hypotension; heart rate effect ([2]; rat): marked dose-dependent tachycardia; dosage producing a 30% increase in heart rate ([2]; rat, 30 min): 0.21 mmol/kg; dosage producing a 30% increase in heart rate ([2]; rat, 90 min): 0.36 mmol/kg; dosage producing a 30% increase in heart rate ([2]; rat, 180 min): 0.57 mmol/kg
CCCn1c(=O)c2nn(CCN(CC)CC)nc2n(-c2ccccc2)c1=O [MX8258] | > 1350 | 1,6 | 0 | 
CCC(C)Cn1c(=O)[nH]c(=O)c2nn(CCN(CC)CC)nc21 (centres unmarked) [MX82109] | > 1550 | 1,1 | 0,3 | 
CCCn1c(=O)c2c(nnn2CCN(CC)CC)n(-c2ccccc2)c1=O [MX8257] | > 1350 | 1,8 | 0 | 
CCCn1c(=O)c2nn(CCN(C)C)nc2n(CC(C)CC)c1=O (centres unmarked) [MX8272] | 1370 | 2,1 | 0 | 
CCCn1c(=O)c2nn(CCN3CCOCC3)nc2n(-c2ccccc2)c1=O [MX82106, 1-n-propyl-3-phenyl-8-(2-morpholinoethyl)-8-azaxanthine] | > 1300 | 2,9 | 0 | 
CCCn1c(=O)c2c(nnn2CCN(C)C)n(CC(C)CC)c1=O (centres unmarked) [MX8271] | > 1480 | 1,9 | 0 | 
